In patent US20080207452A1, “Ionic liquids derived from herbicidal carboxylic acids and certain trialkylamines or heteroarylamines” (Dow AgroSciences LLC, priority 2007, published 2008):

Key:
Format in all cases: in vivo
[1] = system: Barnyardgrass Echinochloa crus-galli; assay: Post-emergence greenhouse herbicide evaluation, barnyardgrass; conditions: 240 g ae/ha, 14 days after application, visual injury 0-100% vs untreated
Text: (§1) Post-Emergence Application Methods for Herbicide Evaluations.
(§2) A peat based potting soil, Metro-mix 360, was used as the soil media for this test. Metro-mix is a growing medium consisting of 35 to 45% specially processed Coconut Coir Pith, 10 to 20% horticultural grade vermiculite, 15 to 25% processed Ash Bark, 20 to 30% choice Canadian Sphagnum Peat Moss and proprietary nutrients and other ingredients. Several seeds of each species were planted in 10 cm square pots and top watered twice daily. Plant material was propagated in the greenhouse at a constant temperature of 26 to 28° C. and 50 to 60% relative humidity. Natural light was supplemented with 1000-watt metal halide overhead lamps with an average illumination of 500 μE m^−2 s^−1 photosynthetic active radiation (PAR). Day length was 16 hours. Plant material was top-watered prior to treatment and sub-irrigated after treatment. Treatments were applied with a tracksprayer manufactured by Allen Machine Works. The sprayer utilized an 8003E spray nozzle, spray pressure of 262 kPa pressure and speed of 2.8 mph (4.5 km/h) to deliver 187 L/Ha. The nozzle height was 46 cm above the plant canopy. The growth stage of the various weed species ranged from 2 to 4 leaf. Treatments were replicated 3 times. Plants were returned to the greenhouse after treatment and sub-watered throughout the duration of the experiment. Plant material was fertilized twice weekly with Hoagland's fertilizer solution. Percent visual injury assessments were made on a scale of 0 to 100% as compared to the untreated control plants (where 0 is equal to no injury and 100 is equal to complete death of the plant).

[2] = system: Large Crabgrass Digitaria Sanguinalis; assay: Post-emergence greenhouse herbicide evaluation, large crabgrass; conditions: 240 g ae/ha, 14 days after application, visual injury 0-100% vs untreated
Text: as §1, §2

[3] = system: grapes (Vitis labrusca L.); assay: Volatility evaluation: injury to grapes from vapor exposure to treated wheat; conditions: wheat sprayed at 11200 g ae/ha, 24 hour vapor exposure at 40° C., evaluated 7 days after exposure
Text: Methods for Evaluating the Volatility of 2,4-D Standards and Ionic Liquids of 2,4-D.
Four pots of wheat (Triticum aestivum L.) grown in 4 inch square pots were sprayed at 11200 g ae/ha with each of the different forms of 2,4-D. Treatments were applied with a tracksprayer manufactured by Allen Machine Works. The sprayer utilized an 8002E spray nozzle, spray pressure of 262 kPa pressure and speed of 1.5 mph (2.4 km/h) to deliver 187 L/Ha. The nozzle height was 46 cm above the plant canopy. The growth stage of the wheat was 1 to 2 leaf. The wheat plants were allowed to thoroughly dry to ensure that none of the spray solution was present when they were moved into a clean pot flat. A known sensitive species, grapes (Vitis labrusca L.) were placed at the opposite end of the flat. All of the pots were covered with a humidome with small ½ inch (1.27 cm) diameter holes cut into the end where the wheat was placed and a small box fan powered with a battery in the other end to pull air across the treated wheat plants and over the top of grapes. Plants were placed into a growth chamber with the temperature set at 40° C. with a 14 hour day and a 10 hour night cycle. A 24 hour exposure period was used after which the sensitive plants were then removed and placed in the greenhouse and evaluated for injury from vapor exposure to the treatments.

[4] = system: Broadleaf Dock Rumex obtusifolia; assay: Post-emergence greenhouse herbicide evaluation, broadleaf dock; conditions: 560 g ae/ha, 14 days after application, visual injury 0-100% vs untreated
Text: as §1, §2

Kochia Kochia scoparia = assay: Post-emergence greenhouse herbicide evaluation, kochia; conditions: 560 g ae/ha, 14 days after application, visual injury 0-100% vs untreated
Text: as §1, §2

| SMILES | % Control Barnyardgrass Echinochloa crus-galli [1] | % Control Large Crabgrass Digitaria Sanguinalis [2] | % Injury to grapes from vapor exposure [3] | % Control Broadleaf Dock Rumex obtusifolia [4] | % Control Kochia Kochia scoparia (Kochia Kochia scoparia) |
| --- | --- | --- | --- | --- | --- |
| CC(Oc1ccc(Oc2ccc(C#N)cc2F)cc1)C(=O)O.CCCCCCCCCCCCCCN(C)C (stereo not shown) [Compound 4j] | 100% | 82% | – | – | – |
| CCCCCCCCCCCCCCCCN(C)C.O=C(O)COc1ccc(Cl)cc1Cl [Compound 3g] | – | – | 0% | – | – |
| CN(C)Cc1ccccc1.C[C@@H](Oc1ccc(Oc2ccc(C#N)cc2F)cc1)C(=O)O [Compound 4k] | 100% | 85% | – | – | – |
| CCN(CC)CC.O=C(O)COc1nc(Cl)c(Cl)cc1Cl [Triclopyr triethylamine (TEA), Triclopyr triethylamine, reference compound] | – | – | – | 40% | 93% |
| CCCCCCCCn1ccnc1.O=C(O)COc1ccc(Cl)cc1Cl [Compound 1c] | – | – | – | 82% | 97% |
| CCCCOCCOC(=O)COc1ccc(Cl)cc1Cl [2,4-D butoxyethylester (BEE), 2,4-D butoxyethylester, reference compound] | – | – | 100% | 96% | 95% |
| CCCCCCCCN(C)C.C[C@@H](Oc1ccc(Oc2ccc(C#N)cc2F)cc1)C(=O)O [Compound 4i] | 100% | 78% | – | – | – |
| CCCCCCCCN(C)C.O=C(O)COc1ccc(Cl)cc1Cl [Compound 3c] | – | – | 0% | – | – |
| CNC.O=C(O)COc1ccc(Cl)cc1Cl [2,4-D dimethylamine (DMA), 2,4-D dimethylamine, reference compound] | – | – | 78% | 40% | 76% |
| CCCCCCCCn1ccnc1.O=C(O)COc1nc(Cl)c(Cl)cc1Cl [Compound 2c] | – | – | – | 52% | 92% |
| CCCCOC(=O)[C@H](C)Oc1ccc(Oc2ccc(C#N)cc2F)cc1 [cyhalofop Bu-ester, reference compound] | 100% | 92% | – | – | – |
| CCCCCCN(C)C.O=C(O)COc1nc(Cl)c(Cl)cc1Cl [Compound 4b] | – | – | – | 49% | 96% |
| CCCCCCN(C)C.O=C(O)COc1ccc(Cl)cc1Cl [Compound 3b] | – | – | – | 73% | 97% |
| CCCCOCCOC(=O)COc1nc(Cl)c(Cl)cc1Cl [Triclopyr butoxyethylester (BEE), Triclopyr butoxyethylester, reference compound] | – | – | – | 79% | 95% |
